In patent US20130158113A1, “METHODS AND COMPOSITIONS FOR TREATING BRAIN CANCER” (Golden Biotechnology Corporation, priority 2011, published 2013):
≈ marks a conversion by molar mass, not a printed value. Where “and” joins values, the source holds several entries; their conditions need not be identical. Identical values can stand only once.

How the values were obtained:
U373MG = assay: MTT survival assay on U373MG cancer cells; format: cell-based; conditions: Homo sapiens, U373 MG, read-out: half maximal inhibitory concentration (IC50)
Excerpt: (§1) MTT assay is commonly used to determine cell proliferation, percent of viable cells, and cytotoxicity. MTT (3-[4,5-dimethylthiazol-2-yl]2,5-diphenyltetrazolium bromide) is a yellow dye, which can be absorbed by the living cells and be reduced to purplish blue formazan crystals by succinate tetrazolium reductase in mitochondria. Formazan formation can therefore be used to assess and determine the survival rate of cells.
(§2) To each of the 96 well plates containing SK-N-MC, 0.003, 0.01, 0.03, 0.1, and 0.3 μg/ml of compound 1 were add. The 96 well plates were incubated at 37° C., 5% CO2 for 48 hours. Subsequently, in the dark environment to each well of the plates were added 2.5 mg/ml of MTT. The reaction was terminated by addition of 100 μl of lysis buffer after 4 hours. The survival rate of cells was calculated based on the measurement of absorption at the 570 nm wavelength by enzyme immunoassay analyzer. The half maximal inhibitory concentration (IC50) values of compound 1 on SK-N-MC was 0.05 μg/mL. Similarly, another exemplary cancer cell lines, U373MG, were used.

SK-N-MC cells = assay: MTT survival assay on SK-N-MC brain cancer cells; format: cell-based; conditions: Homo sapiens, 48 hours
Description: The NCI anti-cancer drug screen model was adopted to test anti-cancer effect of the exemplary compounds from Example 1. The isolated compound 1 from Example 1 was added into the culture media of brain-cancer cells, SK-N-MC, to test for tumor cell survival by MTT assay.
as §1
SK-N-MC cells were suspended and cultured in 10% fetal bovine serum (Life Technologies Inc.) culture medium containing 1% penicillin and 1% streptomycin. The cells were incubated under 5% CO2, 37° C. for 24 hours. After cell proliferation, the cells were washed once with PBS, treated with the trypsin-EDTA, and then centrifuged at 1,200 rpm for 5 minutes to separate cells from supernatant. The cells were re-suspended in fresh culture medium (10 mL) and placed in 96 well plates.
as §2

[1] = Determination of Compound 1 in mice brain by LC/MS/MS; format: in vivo; conditions: male CD-1 mice fed 1 mg/g in 0.5% methylcellulose, brain removed after 15 minute; individual brains 1-3
Description: The concentration of compound 1 in brain samples was analyzed by LC/MS/MS spectrometer. Experiments were performed on male CD-1 derived mice weighing 24±2 g (Biolasco Taiwan). The CD-1 mice were fed with 1 mg/g Compound 1 in 0.5% methylcellulose (concentration is 2 mg/mL). The brains of the CD-1 mice were removed after 15 minute and extracted with CH3CN and then centrifuged to prepare supernatant that was analyzed by LC/MS/MS.

For `COC1=C(OC)C(O)C(C/C=C(\C)CC/C=C(\C)CCC=C(C)C)C(C)C1=O` (centres unmarked) [Compound 1, 4-hydroxy-2,3-dimethoxy-6-methyl-5-(3,7,11-trimethyldodeca-2,6,10-trienyl)cyclohex-2-enone], the IC50 (U373MG) was 5.88 µg/mL (≈ 15.1 µM), the viability at 0.003 µg/mL (SK-N-MC cells; 0.003 μg/ml, read-out: Cell viability rate mean) was 86.3% and the viability at 0.01 µg/mL (SK-N-MC cells; 0.01 μg/ml, read-out: Cell viability rate mean) was 76.6%. For the same compound, the viability at 0.03 µg/mL (SK-N-MC cells; 0.03 μg/ml, read-out: Cell viability rate mean) was 63.2%, the viability at 0.1 µg/mL (SK-N-MC cells; 0.1 μg/ml, read-out: Cell viability rate mean) was 32.9% and the viability at 0.3 µg/mL (SK-N-MC cells; 0.3 μg/ml, read-out: Cell viability rate mean) was 23%. The IC50 (SK-N-MC cells; read-out: half maximal inhibitory concentration (IC50)) was 0.05 µg/mL (≈ 0.128 µM) and the Brain concentration [1] was 30.13 µg/g and 7.59 µg/g and 24.28 µg/g.
